Reference: ChEMBL document CHEMBL4130364, “4-Aminoquinoline-chalcone/-N-acetylpyrazoline conjugates: Synthesis and antiplasmodial evaluation” (Eur J Med Chem, 2017)

Columns and labels:
Plasmodium falciparum = test: Antiplasmodial activity against chloroquine-resistant Plasmodium falciparum W2 after 48 hrs by YOYO-1 dye-based flow cytometry; type: functional, organism-based; conditions: W2, 48 h
HeLa = test: Cytotoxicity against human HeLa cells assessed as reduction in cell viability after 24 hrs by trypan blue-based hemacytometer counting analysis
[1] = Selectivity index, ratio of IC50 for human HeLa cells to IC50 for chloroquine-resistant Plasmodium falciparum W2; type: toxicity; conditions: read-out: Ratio IC50

| SMILES | IC50 (Plasmodium falciparum) | IC50 (HeLa) | selectivity ratio [1] |
| --- | --- | --- | --- |
| COc1cc(C2=NN(C(C)=O)C(c3ccccc3)C2)ccc1OCc1cn(CCNc2ccnc3cc(Cl)ccc23)nn1 (stereo unspecified) | 286 nM | – | – |
| COc1ccc(C2CC(c3ccc(OCc4cn(CCCNc5ccnc6cc(Cl)ccc56)nn4)cc3)=NN2C(C)=O)cc1OC (stereo unspecified) | 504 nM | – | – |
| COc1ccc(/C=C/C(=O)c2ccc(OCc3cn(CCCNc4ccnc5cc(Cl)ccc45)nn3)cc2)cc1OC | > 10000 nM | – | – |
| COc1ccc(C2CC(c3ccc(OCc4cn(CCNc5ccnc6cc(Cl)ccc56)nn4)c(OC)c3)=NN2C(C)=O)cc1OC (stereo unspecified) | 53.7 nM | 42700 nM | 795 |
| COc1cc(C2=NN(C(C)=O)C(c3ccccc3)C2)ccc1OCc1cn(CCCNc2ccnc3cc(Cl)ccc23)nn1 (stereo unspecified) | 77 nM | 46100 nM | 598 |
| COc1cc(C(=O)/C=C/c2cc(OC)c(OC)c(OC)c2)ccc1OCc1cn(CCCNc2ccnc3cc(Cl)ccc23)nn1 | 831 nM | – | – |
| COc1ccc(/C=C/C(=O)c2ccc(OCc3cn(CCNc4ccnc5cc(Cl)ccc45)nn3)cc2)cc1 | 114 nM | 35600 nM | 311 |
| COc1ccc(C2CC(c3ccc(OCc4cn(CCCNc5ccnc6cc(Cl)ccc56)nn4)c(OC)c3)=NN2C(C)=O)cc1 (stereo unspecified) | 1570 nM | – | – |
| COc1ccc(/C=C/C(=O)c2ccc(OCc3cn(CCCNc4ccnc5cc(Cl)ccc45)nn3)c(OC)c2)cc1OC | 337 nM | – | – |
| COc1cc(/C=C/C(=O)c2ccc(OCc3cn(CCNc4ccnc5cc(Cl)ccc45)nn3)cc2)cc(OC)c1OC | 175 nM | – | – |
| O=C(/C=C/c1ccccc1)c1ccc(OCc2cn(CCCNc3ccnc4cc(Cl)ccc34)nn2)cc1 | > 10000 nM | – | – |
| COc1cc(/C=C/C(=O)c2ccc(OCc3cn(CCCNc4ccnc5cc(Cl)ccc45)nn3)cc2)cc(OC)c1OC | 5280 nM | – | – |
| COc1ccc(C2CC(c3ccc(OCc4cn(CCNc5ccnc6cc(Cl)ccc56)nn4)cc3)=NN2C(C)=O)cc1 (stereo unspecified) | 131 nM | 29200 nM | 223 |
| COc1cc(C2=NN(C(C)=O)C(c3cc(OC)c(OC)c(OC)c3)C2)ccc1OCc1cn(CCCNc2ccnc3cc(Cl)ccc23)nn1 (stereo unspecified) | 1740 nM | – | – |
| COc1cc(C2=NN(C(C)=O)C(c3cc(OC)c(OC)c(OC)c3)C2)ccc1OCc1cn(CCNc2ccnc3cc(Cl)ccc23)nn1 (stereo unspecified) | 139 nM | – | – |
| COc1ccc(/C=C/C(=O)c2ccc(OCc3cn(CCNc4ccnc5cc(Cl)ccc45)nn3)c(OC)c2)cc1OC | 830 nM | – | – |
| COc1ccc(/C=C/C(=O)c2ccc(OCc3cn(CCCNc4ccnc5cc(Cl)ccc45)nn3)cc2)cc1 | > 10000 nM | – | – |

| SMILES | IC50 (Plasmodium falciparum) | IC50 (HeLa) | selectivity ratio [1] |
| --- | --- | --- | --- |
| COc1cc(C2CC(c3ccc(OCc4cn(CCNc5ccnc6cc(Cl)ccc56)nn4)cc3)=NN2C(C)=O)cc(OC)c1OC (stereo unspecified) | 426 nM | – | – |
| COc1ccc(C2CC(c3ccc(OCc4cn(CCCNc5ccnc6cc(Cl)ccc56)nn4)cc3)=NN2C(C)=O)cc1 (stereo unspecified) | 498 nM | – | – |
| CC(=O)N1N=C(c2ccc(OCc3cn(CCNc4ccnc5cc(Cl)ccc45)nn3)cc2)CC1c1ccccc1 (stereo unspecified) | 237 nM | – | – |
| COc1ccc(/C=C/C(=O)c2ccc(OCc3cn(CCNc4ccnc5cc(Cl)ccc45)nn3)cc2)cc1OC | 141 nM | 12700 nM | 90 |
| COc1ccc(C2CC(c3ccc(OCc4cn(CCCNc5ccnc6cc(Cl)ccc56)nn4)c(OC)c3)=NN2C(C)=O)cc1OC (stereo unspecified) | 1680 nM | – | – |
| COc1ccc(/C=C/C(=O)c2ccc(OCc3cn(CCCNc4ccnc5cc(Cl)ccc45)nn3)c(OC)c2)cc1 | > 10000 nM | – | – |
| COc1cc(C(=O)/C=C/c2ccccc2)ccc1OCc1cn(CCNc2ccnc3cc(Cl)ccc23)nn1 | 355 nM | – | – |
| COc1cc(C(=O)/C=C/c2cc(OC)c(OC)c(OC)c2)ccc1OCc1cn(CCNc2ccnc3cc(Cl)ccc23)nn1 | 355 nM | – | – |
| COc1ccc(C2CC(c3ccc(OCc4cn(CCNc5ccnc6cc(Cl)ccc56)nn4)c(OC)c3)=NN2C(C)=O)cc1 (stereo unspecified) | 58.7 nM | 32800 nM | 558 |
| COc1cc(C2CC(c3ccc(OCc4cn(CCCNc5ccnc6cc(Cl)ccc56)nn4)cc3)=NN2C(C)=O)cc(OC)c1OC (stereo unspecified) | 2420 nM | – | – |
| COc1ccc(C2CC(c3ccc(OCc4cn(CCNc5ccnc6cc(Cl)ccc56)nn4)cc3)=NN2C(C)=O)cc1OC (stereo unspecified) | 152 nM | – | – |
| O=C(/C=C/c1ccccc1)c1ccc(OCc2cn(CCNc3ccnc4cc(Cl)ccc34)nn2)cc1 | 172 nM | – | – |
| CC(=O)N1N=C(c2ccc(OCc3cn(CCCNc4ccnc5cc(Cl)ccc45)nn3)cc2)CC1c1ccccc1 (stereo unspecified) | 3000 nM | – | – |
| COc1ccc(/C=C/C(=O)c2ccc(OCc3cn(CCNc4ccnc5cc(Cl)ccc45)nn3)c(OC)c2)cc1 | 1910 nM | – | – |
| COc1cc(C(=O)/C=C/c2ccccc2)ccc1OCc1cn(CCCNc2ccnc3cc(Cl)ccc23)nn1 | 6960 nM | – | – |
| C[C@@H]1CC[C@H]2[C@@H](C)C(=O)O[C@@H]3O[C@@]4(C)CC[C@@H]1[C@]32OO4 [ARTEMISININ] | 32.1 nM | – | – |
| COc1cccc2c1C(=O)c1c(O)c3c(c(O)c1C2=O)C[C@@](O)(C(=O)CO)C[C@@H]3O[C@H]1C[C@H](N)[C@H](O)[C@H](C)O1 [DOXORUBICIN] | – | 8300 nM | – |
